The source made the active and inactive calls.
Columns and labels:
[1] = molecular target: T1, High affinity choline transporter 1 (Homo sapiens, UniProt Q9GZV3); experiment: human choline transporter blockers, potency – cell-based, 5-point CRC, membrane potential dye, dose response (AID 504840); format: functional
T1 sequence (Q9GZV3 whole entry): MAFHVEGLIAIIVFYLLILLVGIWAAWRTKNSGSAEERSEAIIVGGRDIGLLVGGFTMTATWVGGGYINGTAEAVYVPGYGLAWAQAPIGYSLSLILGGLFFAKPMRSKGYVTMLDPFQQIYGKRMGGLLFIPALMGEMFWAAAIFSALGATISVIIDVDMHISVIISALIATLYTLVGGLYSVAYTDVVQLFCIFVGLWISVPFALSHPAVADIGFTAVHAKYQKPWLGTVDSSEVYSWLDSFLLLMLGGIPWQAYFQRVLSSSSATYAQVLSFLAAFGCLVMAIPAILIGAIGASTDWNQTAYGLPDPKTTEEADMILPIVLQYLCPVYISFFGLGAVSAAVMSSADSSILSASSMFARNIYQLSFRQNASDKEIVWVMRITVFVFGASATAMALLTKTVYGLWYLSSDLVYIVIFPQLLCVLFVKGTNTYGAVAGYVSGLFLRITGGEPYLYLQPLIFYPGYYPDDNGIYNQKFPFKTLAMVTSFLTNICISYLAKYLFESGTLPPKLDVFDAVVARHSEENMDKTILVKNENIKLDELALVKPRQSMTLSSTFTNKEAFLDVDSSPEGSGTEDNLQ

[2] = molecular target: T1, High affinity choline transporter 1; experiment: human choline transporter blockers, potency – cell-based, 10-point CRC, membrane potential dye, dose response (AID 588401); format: functional;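 also: membrane potential dye fluorescence of choline-evoked depolarization via CHT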
[3] = alpha-synuclein stem-loop luciferase translation blockers – H4 neuroglioma cells, luminescence, confirmation (AID 1988); format: functional, cell-based
[4] = HEK-293T viability loss, compound-treated – cell-based, uHTS hits, cytotoxicity control for B/T-cell NF-kB inhibitor project, dose response (AID 489019); format: functional;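 also: IC50 reflects cytotoxicity as loss of cell viability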
[5] = Luminescence Cell-Based Dose Response HTS to Identify Inhibitors of 5'UTR Stem-Loop Driven Prion Protein mRNA Translation in H4 Neuroglioblastoma Cells. [Related pubchem assays: 1827 (Project Summary), 1813 (Primary HTS)]; format: functional
HEK293 = experiment: EBV LMP1 TES2 canonical NF-kB signalling blockers – cell-based, HEK293, luciferase, cherry-pick, dose response (AID 588343); format: functional; details: Homo sapiens
Jurkat = experiment: blockers of NF-kB activation in T cells – Jurkat, luciferase reporter, luminescence, B- and T-cell, dose response (AID 489004); format: functional, cell-based; details: Homo sapiens;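 also: NF-kB luciferase reporter Jurkat cells stimulated with PMA plus ionomycin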
[6] = luciferase reporter signal suppression in cells – H4 neuroglioma cells, luminescence, dose response (AID 1990); format: functional, cell-based
[7] = viability loss in HEK293T cells – cell-based, cherry-picks, cytotoxicity control for HIV Vif inhibitor project, dose response (AID 652208); format: functional
[8] = A Cell Based Secondary Assay To Explore Cytotoxicity of Compounds that Sensitize Mycobacterium Tuberculosis to Beta-Lactam Antibiotics.; format: functional
Vero = experiment: viability of Vero cells under compound – cytotoxicity control for flavivirus capping enzyme inhibitors (AID 588742); format: functional; details: Chlorocebus sabaeus
Genome polyprotein = Genome polyprotein (dengue virus type 2, UniProt P29990); experiment: flavivirus cap methylation enzyme inhibition – biochemical, confirmation dose response, primary screen (AID 588689); format: functional
Chain of Genome polyprotein (P29990 2492-3391 limits assumed): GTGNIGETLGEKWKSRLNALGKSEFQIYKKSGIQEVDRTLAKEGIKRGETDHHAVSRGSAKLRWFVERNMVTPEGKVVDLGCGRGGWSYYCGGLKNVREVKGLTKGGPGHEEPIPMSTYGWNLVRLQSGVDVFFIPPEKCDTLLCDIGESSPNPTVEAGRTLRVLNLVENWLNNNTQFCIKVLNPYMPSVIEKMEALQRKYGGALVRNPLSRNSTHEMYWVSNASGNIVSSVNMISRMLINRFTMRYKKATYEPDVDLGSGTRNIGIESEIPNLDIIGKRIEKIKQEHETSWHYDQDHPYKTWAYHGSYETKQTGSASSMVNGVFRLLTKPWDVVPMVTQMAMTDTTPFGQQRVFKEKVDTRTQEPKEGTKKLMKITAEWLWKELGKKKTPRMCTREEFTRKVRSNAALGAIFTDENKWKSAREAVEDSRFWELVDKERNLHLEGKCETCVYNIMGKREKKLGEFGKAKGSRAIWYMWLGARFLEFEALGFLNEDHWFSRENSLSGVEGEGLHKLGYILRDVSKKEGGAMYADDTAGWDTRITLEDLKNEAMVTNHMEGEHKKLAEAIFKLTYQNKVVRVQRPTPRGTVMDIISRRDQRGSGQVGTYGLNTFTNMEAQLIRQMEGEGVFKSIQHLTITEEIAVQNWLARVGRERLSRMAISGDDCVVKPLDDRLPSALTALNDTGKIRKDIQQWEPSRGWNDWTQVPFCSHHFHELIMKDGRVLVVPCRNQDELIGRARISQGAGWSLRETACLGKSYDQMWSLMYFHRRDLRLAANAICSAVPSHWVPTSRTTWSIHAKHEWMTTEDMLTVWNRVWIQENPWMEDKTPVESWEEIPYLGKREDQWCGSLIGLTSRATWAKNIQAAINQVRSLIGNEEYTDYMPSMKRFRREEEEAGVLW

Albumin = Albumin (Bos taurus, UniProt P02769); experiment: Counterscreen for inhibitors of T-cell receptor (TCR)-CD3 interaction: Fluorescence-based biochemical high throughput dose response assay to identify inhibitors of T-cell receptor (TCR)-CD3 interaction using a TAMRA-labeled BSA probe.; format: functional
Chain of Albumin (P02769 whole entry): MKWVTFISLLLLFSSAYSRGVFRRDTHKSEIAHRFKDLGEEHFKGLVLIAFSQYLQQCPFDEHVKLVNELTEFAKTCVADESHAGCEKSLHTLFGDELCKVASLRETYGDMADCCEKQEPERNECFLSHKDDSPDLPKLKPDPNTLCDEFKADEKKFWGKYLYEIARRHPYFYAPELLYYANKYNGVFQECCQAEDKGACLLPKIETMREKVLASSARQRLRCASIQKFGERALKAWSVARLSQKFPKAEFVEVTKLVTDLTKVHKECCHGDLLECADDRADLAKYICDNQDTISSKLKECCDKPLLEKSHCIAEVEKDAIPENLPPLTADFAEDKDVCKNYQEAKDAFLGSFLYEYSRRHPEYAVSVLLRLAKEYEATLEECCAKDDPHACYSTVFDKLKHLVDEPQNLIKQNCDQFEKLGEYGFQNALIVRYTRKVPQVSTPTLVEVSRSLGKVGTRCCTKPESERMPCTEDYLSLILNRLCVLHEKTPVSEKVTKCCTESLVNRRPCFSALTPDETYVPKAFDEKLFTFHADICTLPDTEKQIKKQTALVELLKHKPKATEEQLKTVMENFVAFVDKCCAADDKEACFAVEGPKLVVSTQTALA

[9] = viability loss in HeLa cells – cytotoxicity control for MgcRacGAP inhibitor project, dose response (AID 624300); format: functional
[10] = molecular target: T2, Histone-lysine N-methyltransferase NSD2 (Homo sapiens, UniProt O96028); format: biochemical
T2 sequence (O96028 whole entry): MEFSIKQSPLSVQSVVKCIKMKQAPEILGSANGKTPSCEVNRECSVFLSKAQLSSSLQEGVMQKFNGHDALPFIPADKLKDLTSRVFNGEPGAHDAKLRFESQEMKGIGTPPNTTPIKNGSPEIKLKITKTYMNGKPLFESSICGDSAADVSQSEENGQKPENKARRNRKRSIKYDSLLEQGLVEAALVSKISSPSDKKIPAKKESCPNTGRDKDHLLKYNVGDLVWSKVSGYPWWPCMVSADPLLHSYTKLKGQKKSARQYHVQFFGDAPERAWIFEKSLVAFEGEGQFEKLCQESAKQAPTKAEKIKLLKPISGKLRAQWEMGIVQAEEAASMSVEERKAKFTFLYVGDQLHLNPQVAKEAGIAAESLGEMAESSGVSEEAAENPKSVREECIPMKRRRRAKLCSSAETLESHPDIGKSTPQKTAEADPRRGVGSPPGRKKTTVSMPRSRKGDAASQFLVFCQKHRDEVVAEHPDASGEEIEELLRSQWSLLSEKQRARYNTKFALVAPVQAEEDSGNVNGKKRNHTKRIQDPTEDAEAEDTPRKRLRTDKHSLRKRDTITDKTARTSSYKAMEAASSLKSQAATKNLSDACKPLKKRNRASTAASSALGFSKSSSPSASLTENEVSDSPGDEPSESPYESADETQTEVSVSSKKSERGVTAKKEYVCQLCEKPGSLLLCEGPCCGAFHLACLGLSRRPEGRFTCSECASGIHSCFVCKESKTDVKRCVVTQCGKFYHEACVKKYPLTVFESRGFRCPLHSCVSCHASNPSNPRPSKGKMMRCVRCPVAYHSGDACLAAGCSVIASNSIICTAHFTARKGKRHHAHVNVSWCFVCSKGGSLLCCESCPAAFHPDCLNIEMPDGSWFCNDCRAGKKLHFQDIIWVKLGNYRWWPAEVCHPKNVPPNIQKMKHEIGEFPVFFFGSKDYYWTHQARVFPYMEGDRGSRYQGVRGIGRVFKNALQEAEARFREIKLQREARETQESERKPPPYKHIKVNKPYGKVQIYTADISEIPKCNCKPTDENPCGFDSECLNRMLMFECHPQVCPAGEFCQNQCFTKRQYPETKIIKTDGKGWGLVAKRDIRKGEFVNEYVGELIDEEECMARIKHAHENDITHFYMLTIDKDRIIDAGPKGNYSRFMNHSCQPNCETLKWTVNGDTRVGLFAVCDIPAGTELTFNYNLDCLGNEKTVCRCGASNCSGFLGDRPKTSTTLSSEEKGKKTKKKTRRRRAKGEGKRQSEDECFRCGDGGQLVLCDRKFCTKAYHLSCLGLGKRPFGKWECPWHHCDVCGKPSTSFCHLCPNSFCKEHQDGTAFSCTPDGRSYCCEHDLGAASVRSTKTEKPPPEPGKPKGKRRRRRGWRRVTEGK

[11] = molecular target: T3, Polyadenylate-binding protein 1 (Homo sapiens, UniProt P11940); experiment: MLLE domain peptide-binding blockers, IC50 – biochemical, fluorescence polarization, FITC-PAM2 peptide, dose response (AID 602259); format: functional; details: read-out: IC50_Mean
T3 sequence (P11940 whole entry, the tested form may be a part): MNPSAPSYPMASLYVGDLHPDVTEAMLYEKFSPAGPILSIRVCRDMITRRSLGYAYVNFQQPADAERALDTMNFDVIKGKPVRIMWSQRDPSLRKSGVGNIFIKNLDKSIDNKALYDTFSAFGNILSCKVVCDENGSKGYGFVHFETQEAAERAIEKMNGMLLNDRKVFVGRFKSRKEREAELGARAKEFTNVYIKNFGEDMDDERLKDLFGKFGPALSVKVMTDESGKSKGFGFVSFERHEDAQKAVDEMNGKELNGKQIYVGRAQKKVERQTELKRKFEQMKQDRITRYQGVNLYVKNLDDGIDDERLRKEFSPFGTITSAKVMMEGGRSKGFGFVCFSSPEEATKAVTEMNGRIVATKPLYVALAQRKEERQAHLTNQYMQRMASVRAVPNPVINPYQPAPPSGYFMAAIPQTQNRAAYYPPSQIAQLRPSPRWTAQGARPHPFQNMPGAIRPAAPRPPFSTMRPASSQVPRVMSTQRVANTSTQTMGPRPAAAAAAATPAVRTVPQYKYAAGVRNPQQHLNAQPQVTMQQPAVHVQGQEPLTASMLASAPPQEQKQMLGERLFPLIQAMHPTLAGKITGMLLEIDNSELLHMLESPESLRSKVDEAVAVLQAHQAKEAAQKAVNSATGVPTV

Keap1/Nrf2 = Keap1/Nrf2 (Homo sapiens, UniProt Q14145); experiment: disruptors of Keap1 binding to Nrf2 peptide – biochemical, fluorescence polarization, cherry-picked samples, dose response (AID 588683)
Chain of Keap1/Nrf2 (Q16236 whole entry): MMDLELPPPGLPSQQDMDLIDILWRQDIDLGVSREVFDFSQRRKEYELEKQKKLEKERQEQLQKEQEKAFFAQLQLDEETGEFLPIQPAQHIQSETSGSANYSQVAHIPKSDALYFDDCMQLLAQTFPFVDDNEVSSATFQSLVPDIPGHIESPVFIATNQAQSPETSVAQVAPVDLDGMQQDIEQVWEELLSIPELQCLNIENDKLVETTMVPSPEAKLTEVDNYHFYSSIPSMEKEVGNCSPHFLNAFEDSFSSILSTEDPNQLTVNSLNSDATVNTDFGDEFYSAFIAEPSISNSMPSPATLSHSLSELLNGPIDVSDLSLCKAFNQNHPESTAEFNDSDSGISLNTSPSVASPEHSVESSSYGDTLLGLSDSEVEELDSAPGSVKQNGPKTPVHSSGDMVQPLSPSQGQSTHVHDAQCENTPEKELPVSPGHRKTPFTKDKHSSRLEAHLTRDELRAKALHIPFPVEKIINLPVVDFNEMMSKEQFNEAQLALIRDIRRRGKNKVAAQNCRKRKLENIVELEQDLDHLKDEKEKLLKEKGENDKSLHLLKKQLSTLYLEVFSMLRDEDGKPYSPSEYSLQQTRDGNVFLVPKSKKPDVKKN
Chain of Keap1/Nrf2 (Q14145 whole entry): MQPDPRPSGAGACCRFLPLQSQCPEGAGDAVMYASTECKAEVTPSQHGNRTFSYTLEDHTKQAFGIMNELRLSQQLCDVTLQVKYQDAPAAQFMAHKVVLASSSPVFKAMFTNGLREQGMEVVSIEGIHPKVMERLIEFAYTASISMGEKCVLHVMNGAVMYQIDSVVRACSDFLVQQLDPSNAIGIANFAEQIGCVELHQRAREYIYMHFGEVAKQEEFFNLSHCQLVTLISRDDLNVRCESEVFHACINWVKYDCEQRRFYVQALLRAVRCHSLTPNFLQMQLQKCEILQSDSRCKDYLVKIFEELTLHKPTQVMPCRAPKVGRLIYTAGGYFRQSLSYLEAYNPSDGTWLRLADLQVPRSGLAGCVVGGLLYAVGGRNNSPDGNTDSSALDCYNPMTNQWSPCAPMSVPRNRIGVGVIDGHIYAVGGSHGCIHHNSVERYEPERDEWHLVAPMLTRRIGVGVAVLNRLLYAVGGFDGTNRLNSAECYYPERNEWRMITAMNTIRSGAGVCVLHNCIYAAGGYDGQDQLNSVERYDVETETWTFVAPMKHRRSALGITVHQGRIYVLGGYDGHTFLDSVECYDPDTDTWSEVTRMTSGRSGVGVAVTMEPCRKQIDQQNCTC

[12] = molecular target: T3, Polyadenylate-binding protein 1; experiment: MLLE binding blockers, Cy5 peptide tracer – biochemical, fluorescence polarization, Cy5-PAM2 peptide, secondary, miRNA deadenylation inhibitor project, dose response (AID 602260); format: functional; details: read-out: IC50_Mean
Hexokinase-1 = molecular target: T4, Hexokinase-1 (Homo sapiens, UniProt P19367); experiment: SAR analysis of small molecule inhibitors of hexokinase domain containing I (HKDC1) in the hexokinase 1 selectivity assay. [Related pubchem assays (depositor defined):AID493160, AID493190]; format: functional
T4 sequence (P19367 whole entry): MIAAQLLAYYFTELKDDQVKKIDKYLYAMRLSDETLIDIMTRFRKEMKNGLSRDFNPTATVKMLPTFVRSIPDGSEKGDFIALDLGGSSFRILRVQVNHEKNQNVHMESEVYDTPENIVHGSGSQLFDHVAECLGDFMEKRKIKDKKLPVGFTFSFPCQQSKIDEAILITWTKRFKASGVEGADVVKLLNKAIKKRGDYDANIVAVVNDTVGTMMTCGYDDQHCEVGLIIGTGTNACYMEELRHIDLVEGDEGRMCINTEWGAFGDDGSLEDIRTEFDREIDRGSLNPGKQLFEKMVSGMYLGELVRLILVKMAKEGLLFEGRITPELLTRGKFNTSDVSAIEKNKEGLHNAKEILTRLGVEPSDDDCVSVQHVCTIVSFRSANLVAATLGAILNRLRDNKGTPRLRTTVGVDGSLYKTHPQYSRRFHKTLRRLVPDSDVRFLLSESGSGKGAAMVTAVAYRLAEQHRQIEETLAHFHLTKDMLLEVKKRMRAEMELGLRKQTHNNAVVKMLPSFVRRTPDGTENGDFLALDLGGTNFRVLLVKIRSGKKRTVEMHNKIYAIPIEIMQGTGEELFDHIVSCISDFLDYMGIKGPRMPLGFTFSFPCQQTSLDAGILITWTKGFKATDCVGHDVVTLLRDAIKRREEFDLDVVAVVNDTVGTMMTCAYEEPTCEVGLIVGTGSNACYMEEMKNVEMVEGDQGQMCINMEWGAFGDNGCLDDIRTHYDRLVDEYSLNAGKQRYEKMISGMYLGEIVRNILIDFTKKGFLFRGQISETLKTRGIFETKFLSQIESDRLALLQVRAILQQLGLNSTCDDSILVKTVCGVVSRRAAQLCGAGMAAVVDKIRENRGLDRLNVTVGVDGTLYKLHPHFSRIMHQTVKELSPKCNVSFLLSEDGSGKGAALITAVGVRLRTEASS

Hexokinase HKDC1 = molecular target: T5, Hexokinase HKDC1 (Homo sapiens, UniProt Q2TB90); experiment: SAR analysis of small molecule inhibitors of hexokinase domain containing I (HKDC1). [Related pubchem assays (depositor defined):AID493160, AID493190]; format: functional
T5 sequence (Q2TB90 whole entry): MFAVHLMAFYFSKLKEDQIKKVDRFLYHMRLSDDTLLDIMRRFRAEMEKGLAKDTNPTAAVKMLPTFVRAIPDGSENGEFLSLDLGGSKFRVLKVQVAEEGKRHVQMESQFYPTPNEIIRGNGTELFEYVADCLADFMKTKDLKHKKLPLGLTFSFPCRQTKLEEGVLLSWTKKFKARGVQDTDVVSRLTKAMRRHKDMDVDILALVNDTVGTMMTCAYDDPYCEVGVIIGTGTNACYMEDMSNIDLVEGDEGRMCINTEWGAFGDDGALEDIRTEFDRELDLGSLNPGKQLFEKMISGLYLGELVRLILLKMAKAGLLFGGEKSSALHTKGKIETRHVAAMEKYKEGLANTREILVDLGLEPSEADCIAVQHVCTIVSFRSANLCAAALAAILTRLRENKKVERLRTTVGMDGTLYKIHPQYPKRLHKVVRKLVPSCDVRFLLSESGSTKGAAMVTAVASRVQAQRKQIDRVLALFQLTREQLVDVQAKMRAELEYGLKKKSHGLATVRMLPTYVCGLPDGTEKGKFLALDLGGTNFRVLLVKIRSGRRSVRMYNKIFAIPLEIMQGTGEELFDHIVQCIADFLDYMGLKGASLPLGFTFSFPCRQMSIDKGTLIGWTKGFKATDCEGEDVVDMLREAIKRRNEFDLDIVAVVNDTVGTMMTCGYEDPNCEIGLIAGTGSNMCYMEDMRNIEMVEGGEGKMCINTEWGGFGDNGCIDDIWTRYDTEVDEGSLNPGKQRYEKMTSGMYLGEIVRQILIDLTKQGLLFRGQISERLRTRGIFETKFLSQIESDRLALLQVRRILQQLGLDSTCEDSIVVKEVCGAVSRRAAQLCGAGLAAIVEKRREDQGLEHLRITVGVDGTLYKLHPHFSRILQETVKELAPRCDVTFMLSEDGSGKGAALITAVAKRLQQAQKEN

CC1=NOC(=O)/C1=C/c1ccc(O)c(Cl)c1
IC50 [1]: 6.99 µM (active) | IC50 [2]: 3.57 µM (active)

CCc1cc2c(Sc3nc4ccccc4s3)ncnc2s1
EC50 [3]: 3.87 µM (active) | IC50 [4]: > 80 µM (inactive) | EC50 [5]: 16.3 µM (active) | AC50 (HEK293): 4.9 µM (active) | IC50 (Jurkat): < 0.16 µM (active) | EC50 [6]: > 120 µM (not active) | AC50 [7]: > 52 µM (inactive) | CC50 [8]: 30.2 µM (active)

O=C1C(Cl)=C(N2CCN(CCO)CC2)C(=O)c2c(O)ccc(O)c21
CC50 (Vero): 2.85 µM (active) | IC50 (Genome polyprotein): 4.58 µM (active) | IC50 (Albumin): 29.1 µM (inactive) | CC50 [9]: 12.9 µM (active) | AC50 [10]: 4.44 µM (active) | IC50 [11]: 60.6 µM (inactive) | AC50 (Keap1/Nrf2): > 52 µM (inactive) | IC50 [12]: > 66 µM (inactive)

COc1ccc(Cn2c(/C=C/c3cccnc3)nc3ccccc3c2=O)cc1
IC50 (Hexokinase-1): > 80 µM (inactive) | IC50 (Hexokinase HKDC1): > 80 µM (inactive)

O=C(Nc1cccc(C(F)(F)F)c1)c1cccc(NC(=O)c2ccccn2)c1
IC50 (Hexokinase-1): > 80 µM (inactive) | IC50 (Hexokinase HKDC1): > 80 µM (inactive)

O=c1c2ccccc2nc(/C=C/c2ccc(F)cc2)n1Cc1ccccc1
IC50 (Hexokinase-1): > 80 µM (inactive) | IC50 (Hexokinase HKDC1): > 80 µM (inactive)

— ChEMBL document CHEMBL1201862, “PubChem BioAssay data set” (2004)
